US20130303509A1, “NAMPT INHIBITORS” (AbbVie Inc., priority 2012, published 2013)

System: PC3 cells
Assay: NAMPT Cell Proliferation Assay
Format: cell-based
Conditions: Homo sapiens, PC-3, 120 h, 5 days incubation, cell viability by Cell Titer Glo
In short: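 Five-day CellTiter-Glo viability readout in PC3 cells grown in RPMI/10% heat-inactivated FBS. Compounds added after overnight attachment as a 10-fold dilution series, […]. Percent inhibition fitted to sigmoidal dose-response to derive IC50.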

Cc1ccccc1C(=O)N1CCC(c2ccc(C(=O)NC3CN(c4cccnn4)C3)s2)CC1 [Example 812, 5-[1-(2-methylbenzoyl)piperidin-4-yl]-N-[1-(pyridazin-3-yl)azetidin-3-yl]thiophene-2-carboxamide]
IC50: 10.2 nM

O=C(NC1CN(c2cccnn2)C1)c1ccc(C2CCN(C(=O)c3ccc(F)cc3F)CC2)s1 [Example 813, 5-[1-(2,4-difluorobenzoyl)piperidin-4-yl]-N-[1-(pyridazin-3-yl)azetidin-3-yl]thiophene-2-carboxamide]
IC50: 78.6 nM

O=C(NC1CN(c2cccnn2)C1)c1ccc(C2CCN(C(=O)c3cccc(F)c3)CC2)s1 [Example 814, 5-[1-(3-fluorobenzoyl)piperidin-4-yl]-N-[1-(pyridazin-3-yl)azetidin-3-yl]thiophene-2-carboxamide]
IC50: 81.9 nM

O=C(NC1CN(c2cccnn2)C1)c1ccc(C2CCN(C(=O)c3ccc(F)cc3)CC2)s1 [Example 815, 5-[1-(4-fluorobenzoyl)piperidin-4-yl]-N-[1-(pyridazin-3-yl)azetidin-3-yl]thiophene-2-carboxamide]
IC50: 185 nM

O=C(NC1CN(c2cccnn2)C1)c1ccc(C2CCN(C(=O)c3cc(F)cc(F)c3)CC2)s1 [Example 816, 5-[1-(3,5-difluorobenzoyl)piperidin-4-yl]-N-[1-(pyridazin-3-yl)azetidin-3-yl]thiophene-2-carboxamide]
IC50: 188 nM

O=C(Nc1ccc(-c2cc(C3CC3)nn2CCO)cc1)C1CN(c2cccnn2)C1 [Example 817, N-{4-[3-cyclopropyl-1-(2-hydroxyethyl)-1H-pyrazol-5-yl]phenyl}-1-(pyridazin-3-yl)azetidine-3-carboxamide]
IC50: 64.1 nM

O=C(Nc1ccc(C2CCN(C(=O)c3ccccc3)CC2)cc1)C1CN(c2ccc(F)nn2)C1 [Example 818, N-[4-(1-benzoylpiperidin-4-yl)phenyl]-1-(6-fluoropyridazin-3-yl)azetidine-3-carboxamide]
IC50: 29.4 nM

O=C(Nc1ccc(C2CCN(C(=O)c3ccccc3F)CC2)cc1)C1CN(c2ccc(F)nn2)C1 [Example 819, N-{4-[1-(2-fluorobenzoyl)piperidin-4-yl]phenyl}-1-(6-fluoropyridazin-3-yl)azetidine-3-carboxamide]
IC50: 8.56 nM

CC(C)(C)C(=O)N1CCC(c2ccc(NC(=O)C3CN(c4ccc(F)nn4)C3)cc2)CC1 [Example 820, N-{4-[1-(2,2-dimethylpropanoyl)piperidin-4-yl]phenyl}-1-(6-fluoropyridazin-3-yl)azetidine-3-carboxamide]
IC50: 75.4 nM

CC(C)C(=O)N1CCC(c2ccc(NC(=O)C3CN(c4ccc(F)nn4)C3)cc2)CC1 [Example 821, 1-(6-fluoropyridazin-3-yl)-N-{4-[1-(2-methylpropanoyl)piperidin-4-yl]phenyl}azetidine-3-carboxamide]
IC50: 165 nM

CCC(CC)C(=O)N1CCC(c2ccc(NC(=O)C3CN(c4ccc(F)nn4)C3)cc2)CC1 [Example 822, N-{4-[1-(2-ethylbutanoyl)piperidin-4-yl]phenyl}-1-(6-fluoropyridazin-3-yl)azetidine-3-carboxamide]
IC50: 60.5 nM

O=C(Nc1ccc(C2CCN(C(=O)c3ccc(F)cc3)CC2)cc1)C1CN(c2ccc(F)nn2)C1 [Example 823, N-{4-[1-(4-fluorobenzoyl)piperidin-4-yl]phenyl}-1-(6-fluoropyridazin-3-yl)azetidine-3-carboxamide]
IC50: 247 nM

O=C(Nc1ccc(O[C@H]2CCN(C(=O)c3ccccc3)C2)cc1)[C@H]1CCN(c2cccnn2)C1 [Example 824, (3S)—N-(4-{[(3S)-1-benzoylpyrrolidin-3-yl]oxy}phenyl)-1-(pyridazin-3-yl)pyrrolidine-3-carboxamide]
IC50: 70.6 nM

O=C(Nc1ccc(O[C@H]2CCN(C(=O)c3ccccc3F)C2)cc1)[C@H]1CCN(c2cccnn2)C1 [Example 825, (3S)—N-(4-{[(3S)-1-(2-fluorobenzoyl)pyrrolidin-3-yl]oxy}phenyl)-1-(pyridazin-3-yl)pyrrolidine-3-carboxamide]
IC50: 62.3 nM

O=C(Nc1ccc(O[C@H]2CCN(C(=O)c3cc(F)cc(F)c3)C2)cc1)[C@H]1CCN(c2cccnn2)C1 [Example 826, (3S)—N-(4-{[(3S)-1-(3,5-difluorobenzoyl)pyrrolidin-3-yl]oxy}phenyl)-1-(pyridazin-3-yl)pyrrolidine-3-carboxamide]
IC50: 98.3 nM

CC(C)(C)C(=O)N1CC[C@H](Oc2ccc(NC(=O)[C@H]3CCN(c4cccnn4)C3)cc2)C1 [Example 827, (3S)—N-(4-{[(3S)-1-(2,2-dimethylpropanoyl)pyrrolidin-3-yl]oxy}phenyl)-1-(pyridazin-3-yl)pyrrolidine-3-carboxamide]
IC50: 73.7 nM

O=C(Nc1ccc(C2CCN(C(=O)c3ccccc3F)CC2)cc1F)C1CN(c2cccnn2)C1 [Example 828, N-{2-fluoro-4-[1-(2-fluorobenzoyl)piperidin-4-yl]phenyl}-1-(pyridazin-3-yl)azetidine-3-carboxamide]
IC50: 0.826 nM

O=C(Nc1ccc(C2CCN(C(=O)c3ccccc3)CC2)cc1F)C1CN(c2cccnn2)C1 [Example 829, N-[4-(1-benzoylpiperidin-4-yl)-2-fluorophenyl]-1-(pyridazin-3-yl)azetidine-3-carboxamide]
IC50: 2.95 nM

O=C(Nc1ccc(C2CCN(C(=O)c3cccc(F)c3)CC2)cc1F)C1CN(c2cccnn2)C1 [Example 830, N-{2-fluoro-4-[1-(3-fluorobenzoyl)piperidin-4-yl]phenyl}-1-(pyridazin-3-yl)azetidine-3-carboxamide]
IC50: 7.96 nM

Cc1ccccc1C(=O)N1CCC(c2ccc(NC(=O)C3CN(c4cccnn4)C3)c(F)c2)CC1 [Example 831, N-{2-fluoro-4-[1-(2-methylbenzoyl)piperidin-4-yl]phenyl}-1-(pyridazin-3-yl)azetidine-3-carboxamide]
IC50: 7.25 nM

O=C(Nc1ccc(C2CCN(C(=O)c3ccc(F)cc3)CC2)cc1F)C1CN(c2cccnn2)C1 [Example 832, N-{2-fluoro-4-[1-(4-fluorobenzoyl)piperidin-4-yl]phenyl}-1-(pyridazin-3-yl)azetidine-3-carboxamide]
IC50: 16.7 nM

O=C(Nc1ccc(C2CCN(C(=O)c3ccc(F)cc3F)CC2)cc1F)C1CN(c2cccnn2)C1 [Example 833, N-{4-[1-(2,4-difluorobenzoyl)piperidin-4-yl]-2-fluorophenyl}-1-(pyridazin-3-yl)azetidine-3-carboxamide]
IC50: 6.67 nM

O=C(Nc1ccc(C2CCN(C(=O)c3cc(F)cc(F)c3)CC2)cc1F)C1CN(c2cccnn2)C1 [Example 834, N-{4-[1-(3,5-difluorobenzoyl)piperidin-4-yl]-2-fluorophenyl}-1-(pyridazin-3-yl)azetidine-3-carboxamide]
IC50: 14.4 nM

CC(C)(C)CC(=O)N1CCC(c2ccc(NC(=O)C3CN(c4cccnn4)C3)c(F)c2)CC1 [Example 835, N-{4-[1-(3,3-dimethylbutanoyl)piperidin-4-yl]-2-fluorophenyl}-1-(pyridazin-3-yl)azetidine-3-carboxamide]
IC50: 2.35 nM

Cc1ccc(N2CC[C@H](C(=O)Nc3ccc(OC4CCN(C(=O)c5ccccc5F)CC4)cc3)C2)nn1 [Example 836, (3S)—N-(4-{[1-(2-fluorobenzoyl)piperidin-4-yl]oxy}phenyl)-1-(6-methylpyridazin-3-yl)pyrrolidine-3-carboxamide]
IC50: 658 nM

Cc1ccc(N2CC[C@H](C(=O)Nc3ccc(OC4CCN(C(=O)c5ccccc5)CC4)cc3)C2)nn1 [Example 837, (3S)—N-{4-[(1-benzoylpiperidin-4-yl)oxy]phenyl}-1-(6-methylpyridazin-3-yl)pyrrolidine-3-carboxamide]
IC50: 769 nM

Cc1ccc(N2CC[C@H](C(=O)Nc3ccc(OC4CCN(C(=O)C(C)(C)C)CC4)cc3)C2)nn1 [Example 838, (3S)—N-(4-{[1-(2,2-dimethylpropanoyl)piperidin-4-yl]oxy}phenyl)-1-(6-methylpyridazin-3-yl)pyrrolidine-3-carboxamide]
IC50: 1770 nM

Cc1ccc(N2CC[C@H](C(=O)Nc3ccc(OC4CCN(C(=O)C5CCCCC5)CC4)cc3)C2)nn1 [Example 839, (3S)—N-(4-{[1-(cyclohexylcarbonyl)piperidin-4-yl]oxy}-phenyl)-1-(6-methylpyridazin-3-yl)pyrrolidine-3-carboxamide]
IC50: 2000 nM

CC(C)C(=O)N1C2CCC1CC(c1ccc(NC(=O)C3CN(c4cccnn4)C3)cc1)C2 (stereo not shown) [Example 840, N-{4-[8-(2-methylpropanoyl)-8-azabicyclo[3.2.1]oct-3-yl]phenyl}-1-(pyridazin-3-yl)azetidine-3-carboxamide]
IC50: 2.8 nM

O=C(Nc1ccc(C2CC3CCC(C2)N3C(=O)CCC(F)(F)F)cc1)C1CN(c2cccnn2)C1 (stereo not shown) [Example 841, 1-(pyridazin-3-yl)-N-{4-[8-(4,4,4-trifluorobutanoyl)-8-azabicyclo[3.2.1]oct-3-yl]phenyl}azetidine-3-carboxamide]
IC50: 3.55 nM

O=C(Nc1ccc(C2CC3CCC(C2)N3C(=O)c2ccccc2)cc1)C1CN(c2cccnn2)C1 (stereo not shown) [Example 842, N-[4-(8-benzoyl-8-azabicyclo[3.2.1]oct-3-yl)phenyl]-1-(pyridazin-3-yl)azetidine-3-carboxamide]
IC50: 0.665 nM

O=C(Nc1ccc(C2CC3CCC(C2)N3C(=O)c2ccccc2F)cc1)C1CN(c2cccnn2)C1 (stereo not shown) [Example 843, N-{4-[8-(2-fluorobenzoyl)-8-azabicyclo[3.2.1]oct-3-yl]phenyl}-1-(pyridazin-3-yl)azetidine-3-carboxamide]
IC50: 0.61 nM

CC(C)(C)C(=O)N1C2CCC1CC(c1ccc(NC(=O)C3CN(c4cccnn4)C3)cc1)C2 (stereo not shown) [Example 844, N-{4-[8-(2,2-dimethylpropanoyl)-8-azabicyclo[3.2.1]oct-3-yl]phenyl}-1-(pyridazin-3-yl)azetidine-3-carboxamide]
IC50: 2.52 nM

CC1(C(=O)N2C3CCC2CC(c2ccc(NC(=O)C4CN(c5cccnn5)C4)cc2)C3)CC1 (stereo not shown) [Example 845, N-(4-{8-[(1-methylcyclopropyl)carbonyl]-8-azabicyclo[3.2.1]oct-3-yl}phenyl)-1-(pyridazin-3-yl)azetidine-3-carboxamide]
IC50: 2.09 nM
